Results: patent US20240269304A1, “BCL-XL INHIBITOR ANTIBODY-DRUG CONJUGATES AND METHODS OF USE THEREOF” (Novartis AG, priority 2020, published 2024)
Where two headings read alike, the source gives them in different places.

Test system: H1650 cells
Assay: CellTiterGlo (CTG) cell viability, 3D, 120 h, H1650 (Example 8)
Assay type: cell-based, human
Conditions: Homo sapiens, NCI-H1650, H1650 3D
Procedure: H1650 cells were cultivated in RPMI supplemented with 10% heat inactivated fetal bovine serum, penicillin (100 IU/ml), streptomycin (100 μg/ml) and L-glutamine (2 mM). Cell lines were cultured at 37° C. in a humidified atmosphere containing 5% 002. Cells were seeded in 96 microwell round bottom plates (96 microwell Low attachment plates , Costar reference 7007) and exposed to the payloads or ADCs for 120 h (serially diluted; 9 concentrations each, duplicates). Effects of payloads or ADCs on cell viability were assessed after 5 days of incubation at 37° C./5% CO2 by quantification of cellular ATP levels using CellTiterGlo at 75 μL reagent/well. All the conditions were tested in duplicates. Luminescence was quantified on a multipurpose plate reader. IC50S were calculated using standard four-parametric curve fitting. […] Each experiment was performed at least twice, with results being reproducible.

[1] = experiment n1, read-out: H1650 3D CTG IC50 n1
[2] = experiment n2, read-out: H1650 3D CTG IC50 n2
[3] = mean of n1 and n2, read-out: H1650 3D CTG IC50 Mean of n1 and n2

SMILES	IC50 [1] [nM]	IC50 [2] [nM]	IC50 [3] [nM]
Cc1ccc2sc(Nc3nnc4c(c3C)CCCN4c3ccc(-c4cnn(C[C@]56C[C@]7(C)C[C@](C)(C5)C[C@@](OCCN5CCCC5)(C7)C6)c4C)c(C(=O)O)n3)nc2c1 [P42, 3-[1-[[3,5-dimethyl-7-(2-pyrrolidin-1-ylethoxy)-1-adamantyl]methyl]-5-methyl-pyrazol-4-yl]-6-[4-methyl-3-[(5-methyl-1,3-benzothiazol-2-yl)amino]-6,7-dihydro-5H-pyrido[2,3-c]pyridazin-8-yl]pyridine-2-carboxylic acid]	9.4	12.9	11.2
COc1ccc2sc(Nc3nnc4c(c3C)CCCN4c3ccc(-c4cnn(C[C@]56C[C@]7(C)C[C@](C)(C5)C[C@@](OCCN5CCCC5)(C7)C6)c4C)c(C(=O)O)n3)nc2c1 [P43, 3-[1-[[3,5-dimethyl-7-(2-pyrrolidin-1-ylethoxy)-1-adamantyl]methyl]-5-methyl-pyrazol-4-yl]-6-[3-[(5-methoxy-1,3-benzothiazol-2-yl)amino]-4-methyl-6,7-dihydro-5H-pyrido[2,3-c]pyridazin-8-yl]pyridine-2-carboxylic acid]	0.53	0.5	0.52
Cc1c(Nc2nc3ccccc3s2)nnc2c1CCCN2c1ccc(-c2cnn(CC34CC5(C)CC(C)(C3)CC(OCCNCC(=O)O)(C5)C4)c2C)c(C(=O)O)n1 [P47, 6-[3-(1,3-benzothiazol-2-ylamino)-4-methyl-6,7-dihydro-5H-pyrido[2,3-c]pyridazin-8-yl]-3-[1-[[3-[2-(carboxymethylamino)ethoxy]-5,7-dimethyl-1-adamantyl]methyl]-5-methyl-pyrazol-4-yl]pyridine-2-carboxylic acid]	6.54	7.35	6.95
Cc1c(Nc2nc3ccccc3s2)nnc2c1CCCN2c1ccc(-c2cnn(CC34CC5(C)CC(C)(C3)CC(OCCN(C)CC(=O)O)(C5)C4)c2C)c(C(=O)O)n1 [P48, 6-[3-(1,3-benzothiazol-2-ylamino)-4-methyl-6,7-dihydro-5H-pyrido[2,3-c]pyridazin-8-yl]-3-[1-[[3-[2-[carboxymethyl(methyl)amino]ethoxy]-5,7-dimethyl-1-adamantyl]methyl]-5-methyl-pyrazol-4-yl]pyridine-2-carboxylic acid]	2.27	2.79	2.53
Cc1c(Nc2nc3ccccc3s2)nnc2c1CCCN2c1ccc(-c2cnn(CC34CC5(C)CC(C)(CC(CCCN6CCCCCC6)(C5)C3)C4)c2C)c(C(=O)O)n1 [P52, 3-[1-[[3-[3-(azepan-1-yl)propyl]-5,7-dimethyl-1-adamantyl]methyl]-5-methyl-pyrazol-4-yl]-6-[3-(1,3-benzothiazol-2-ylamino)-4-methyl-6,7-dihydro-5H-pyrido[2,3-c]pyridazin-8-yl]pyridine-2-carboxylic acid]	0.73	0.38	0.555
Cc1c(Nc2nc3ccccc3s2)nnc2c1CCCN2c1ccc(-c2cnn(CC34CC5(C)CC(C)(C3)CC(OCCN(C)CCCO)(C5)C4)c2C)c(C(=O)O)n1 [P62, 6-[3-(1,3-benzothiazol-2-ylamino)-4-methyl-6,7-dihydro-5H-pyrido[2,3-c]pyridazin-8-yl]-3-[1-[[3-[2-[3-hydroxypropyl(methyl)amino]ethoxy]-5,7-dimethyl-1-adamantyl]methyl]-5-methyl-pyrazol-4-yl]pyridine-2-carboxylic acid]	0.52	–	0.52
Cc1c(Nc2nc3cc(F)ccc3s2)nnc2c1CCCN2c1ccc(-c2cnn(CC34CC5(C)CC(C)(C3)CC(OCCN3CCCC3)(C5)C4)c2C)c(C(=O)O)n1 [P63, 3-[1-[[3,5-dimethyl-7-(2-pyrrolidin-1-ylethoxy)-1-adamantyl]methyl]-5-methyl-pyrazol-4-yl]-6-[3-[(5-fluoro-1,3-benzothiazol-2-yl)amino]-4-methyl-6,7-dihydro-5H-pyrido[2,3-c]pyridazin-8-yl]pyridine-2-carboxylic acid]	3.73	2.03	2.88

The remaining lines, values ahead:

IC50 [1] [nM]	IC50 [2] [nM]	IC50 [3] [nM]	SMILES
1.3	1.12	1.21	Cc1c(Nc2nc3ccccc3s2)nnc2c1CCCN2c1ccc(-c2cnn(CC34CC5(C)CC(C)(CC(CCCN(C)CCO)(C5)C3)C4)c2C)c(C(=O)O)n1 [P49, 6-[3-(1,3-benzothiazol-2-ylamino)-4-methyl-6,7-dihydro-5H-pyrido[2,3-c]pyridazin-8-yl]-3-[1-[[3-[3-[2-hydroxyethyl(methyl)amino]propyl]-5,7-dimethyl-1-adamantyl]methyl]-5-methyl-pyrazol-4-yl]pyridine-2-carboxylic acid]
0.55	0.21	0.38	COCCCN(C)CCCC12CC3(C)CC(C)(C1)CC(Cn1ncc(-c4ccc(N5CCCc6c5nnc(Nc5nc7ccccc7s5)c6C)nc4C(=O)O)c1C)(C3)C2 [P50, 6-[3-(1,3-benzothiazol-2-ylamino)-4-methyl-6,7-dihydro-5H-pyrido[2,3-c]pyridazin-8-yl]-3-[1-[[3-[3-[3-methoxypropyl(methyl)amino]propyl]-5,7-dimethyl-1-adamantyl]methyl]-5-methyl-pyrazol-4-yl]pyridine-2-carboxylic acid]
1.97	2.83	2.4	COCCCNCCCC12CC3(C)CC(C)(C1)CC(Cn1ncc(-c4ccc(N5CCCc6c5nnc(Nc5nc7ccccc7s5)c6C)nc4C(=O)O)c1C)(C3)C2 [P51, 6-[3-(1,3-benzothiazol-2-ylamino)-4-methyl-6,7-dihydro-5H-pyrido[2,3-c]pyridazin-8-yl]-3-[1-[[3-[3-(3-methoxypropylamino)propyl]-5,7-dimethyl-1-adamantyl]methyl]-5-methyl-pyrazol-4-yl]pyridine-2-carboxylic acid]
37.7	35	36.4	Cc1c(Nc2nc3ccccc3s2)nnc2c1CCCN2c1ccc(-c2cnn(CC34CC5(C)CC(C)(CC(CCCNCC(=O)O)(C5)C3)C4)c2C)c(C(=O)O)n1 [P53, 6-[3-(1,3-benzothiazol-2-ylamino)-4-methyl-6,7-dihydro-5H-pyrido[2,3-c]pyridazin-8-yl]-3-[1-[[3-[3-(carboxymethylamino)propyl]-5,7-dimethyl-1-adamantyl]methyl]-5-methyl-pyrazol-4-yl]pyridine-2-carboxylic acid]
10.7	11.8	11.2	Cc1c(Nc2nc3ccccc3s2)nnc2c1CCCN2c1ccc(-c2cnn(CC34CC5(C)CC(C)(CC(CCCNCCC(=O)O)(C5)C3)C4)c2C)c(C(=O)O)n1 [P54, 6-[3-(1,3-benzothiazol-2-ylamino)-4-methyl-6,7-dihydro-5H-pyrido[2,3-c]pyridazin-8-yl]-3-[1-[[3-[3-(2-carboxyethylamino)propyl]-5,7-dimethyl-1-adamantyl]methyl]-5-methyl-pyrazol-4-yl]pyridine-2-carboxylic acid]
6.15	6.88	6.51	Cc1c(Nc2nc3ccccc3s2)nnc2c1CCCN2c1ccc(-c2cnn(CC34CC5(C)CC(C)(CC(CCCN(C)CC(=O)O)(C5)C3)C4)c2C)c(C(=O)O)n1 [P55, 6-[3-(1,3-benzothiazol-2-ylamino)-4-methyl-6,7-dihydro-5H-pyrido[2,3-c]pyridazin-8-yl]-3-[1-[[3-[3-[carboxymethyl(methyl)amino]propyl]-5,7-dimethyl-1-adamantyl]methyl]-5-methyl-pyrazol-4-yl]pyridine-2-carboxylic acid]
13.9	2.95	8.43	Cc1c(Nc2nc3ccccc3s2)nnc2c1CCCN2c1ccc(-c2cnn(CC34CC5(C)CC(C)(CC(CCCN(C)CCC(=O)O)(C5)C3)C4)c2C)c(C(=O)O)n1 [P56, 6-[3-(1,3-benzothiazol-2-ylamino)-4-methyl-6,7-dihydro-5H-pyrido[2,3-c]pyridazin-8-yl]-3-[1-[[3-[3-[2-carboxyethyl(methyl)amino]propyl]-5,7-dimethyl-1-adamantyl]methyl]-5-methyl-pyrazol-4-yl]pyridine-2-carboxylic acid]
6.75	14.3	10.5	Cc1c(Nc2nc3ccccc3s2)nnc2c1CCCN2c1ccc(-c2cnn(CC34CC5(C)CC(C)(C3)CC(OCCN(C)CCCC(=O)O)(C5)C4)c2C)c(C(=O)O)n1 [P57, 6-[3-(1,3-benzothiazol-2-ylamino)-4-methyl-6,7-dihydro-5H-pyrido[2,3-c]pyridazin-8-yl]-3-[1-[[3-[2-[3-carboxypropyl(methyl)amino]ethoxy]-5,7-dimethyl-1-adamantyl]methyl]-5-methyl-pyrazol-4-yl]pyridine-2-carboxylic acid]
5.73	9.08	7.41	Cc1c(Nc2nc3ccccc3s2)nnc2c1CCCN2c1ccc(-c2cnn(CC34CC5(C)CC(C)(CC(CCCN(C)CCCC(=O)O)(C5)C3)C4)c2C)c(C(=O)O)n1 [P58, 6-[3-(1,3-benzothiazol-2-ylamino)-4-methyl-6,7-dihydro-5H-pyrido[2,3-c]pyridazin-8-yl]-3-[1-[[3-[3-[3-carboxypropyl(methyl)amino]propyl]-5,7-dimethyl-1-adamantyl]methyl]-5-methyl-pyrazol-4-yl]pyridine-2-carboxylic acid]
